# Measurements published in patent US9085582B2, “Benzotriazolodiazepine compounds inhibitors of bromodomains” (GlaxoSmithKline LLC, priority 2010, dated 2015).
# Tested on: IL-6
# Assay: Measurement of LPS induced IL-6 secretion from whole blood
# Type: cell-based
# Conditions: LPS 200 ng/ml stimulated whole blood, 24 hours, IL-6 by immunoassay
# Protocol: Measurement of LPS Induced IL-6 Secretion from Whole Blood
# Activation of monocytic cells by agonists of toll-like receptors such as bacterial lipopolysaccharide (LPS) results in production of key inflammatory mediators including IL-6. Such pathways are widely considered to be central to the pathophysiology of a range of auto-immune and inflammatory disorders.
# Compounds to be tested are diluted to give a range of appropriate concentrations of which 1 ul of the diluted stocks is added to a 96 well plate. Following addition of whole blood (130 ul) the plates are incubated at 37 degrees (5% CO2) for 30 min before the addition of 10 ul of 2.8 ug/ml LPS, diluted in complete RPMI 1640 (final concentration=200 ng/ml), to give a total volume of 140 ul per well. After further incubation for 24 hours at 37 degrees, 140 ul of PBS are added to each well. The plates are sealed, shaken for 10 minutes and then centrifuged (2500 rpm×10 min). 100 ul of the supernatant are removed and IL-6 levels assayed by immunoassay (typically by MesoScale Discovery technology) either immediately or following storage at −20 degrees. Concentration response curves for each compound was generated from the data and an IC50 value was calculated
row,SMILES,IC50 [µM]
1,"CCNC(=O)C[C@@H]1N=C(c2ccc(Cl)cc2)c2cc(-c3ccn[nH]3)ccc2-n2c(C)nnc21 [Example 4, 2-[(4S)-6-(4-Chlorophenyl)-1-methyl-8-(1H-pyrazol-5-yl)-4H-[1,2,4]triazolo[4,3-a][1,4]benzodiazepin-4-yl]-N-ethylacetamide]",≤ 3.16
2,"CCNC(=O)C[C@@H]1N=C(c2ccc(Cl)cc2)c2cc(-c3cn[nH]c3)ccc2-n2c(C)nnc21 [Example 5, 2-[(4S)-6-(4-Chlorophenyl)-1-methyl-8-(1H-pyrazol-4-yl)-4H-[1,2,4]triazolo[4,3-a][1,4]benzodiazepin-4-yl]-N-ethylacetamide]",≤ 3.16
3,"CCNC(=O)C[C@@H]1N=C(c2ccc(Cl)cc2)c2cc(-c3ccccc3)ccc2-n2c(C)nnc21 [Example 1, 2-[(4S)-6-(4-Chlorophenyl)-1-methyl-8-phenyl-4H-[1,2,4]triazolo[4,3-a][1,4]benzodiazepin-4-yl]-N-ethylacetamide]",≤ 3.16
4,"CCNC(=O)C[C@@H]1N=C(c2ccc(Cl)cc2)c2cc(-c3ccc(OC)cc3)ccc2-n2c(C)nnc21 [Example 3, 2-{(4S)-6-(4-Chlorophenyl)-1-methyl-8-[4-(methyloxy)phenyl]-4H-[1,2,4]triazolo[4,3-a][1,4]benzodiazepin-4-yl}-N-ethylacetamide]",≤ 3.16
5,"CCNC(=O)C[C@@H]1N=C(c2ccc(Cl)cc2)c2cc(-c3ccc(CN4CCCC4)cc3)ccc2-n2c(C)nnc21 [Example 13, (S)-2-(6-(4-Chlorophenyl)-1-methyl-8-(4-(pyrrolidin-1-ylmethyl)phenyl)-4H-benzo[f][1,2,4]triazolo[4,3-a][1,4]diazepin-4-yl)-N-ethylacetamide]",≤ 3.16
